From the supplement of paper PMC10307832

Assays:
Experiment in all cases: relative viability (nuclei count vs DMSO), 5 days (fraction); higher = more cells survive
[1] = system: ChaGo-K-1
Procedure, shortened: (§1)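 Relative viability divides the nuclei count in treated wells by that in vehicle wells. Lung cancer cell lines were seeded in 1536-well plates, dosed by pin tool the next day, and fixed and stained after 5 days in one step with final 0.05% Triton X-100, 1% formaldehyde and 1 ug/ml Hoechst. Dosing was a single drug or a fixed anchor-drug dose plus five library-drug doses (not always all listed) in √10 steps, and values are medians of duplicate plates imaged at 4×.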

[2] = system: HCC-78
Procedure, shortened: as §1

[3] = system: HCC-827
Procedure, shortened: as §1

[4] = system: LCLC-97TM1
Procedure, shortened: as §1

[5] = system: LK-2
Procedure, shortened: as §1

[6] = system: LOU-NH91
Procedure, shortened: as §1

[7] = system: NCI-H1355
Procedure, shortened: as §1

[8] = system: NCI-H1395
Procedure, shortened: as §1

[9] = system: NCI-H1755
Procedure, shortened: as §1

[10] = system: NCI-H1792
Procedure, shortened: as §1

[11] = system: NCI-H1993
Procedure, shortened: as §1

[12] = system: NCI-H2009
Procedure, shortened: as §1

[13] = system: NCI-H2085
Procedure, shortened: as §1

[14] = system: NCI-H2342
Procedure, shortened: as §1

[15] = system: NCI-H2405
Procedure, shortened: as §1

[16] = system: NCI-H441
Procedure, shortened: as §1

[17] = system: NCI-H520
Procedure, shortened: as §1

[18] = system: NCI-H522
Procedure, shortened: as §1

[19] = system: NCI-H647
Procedure, shortened: as §1

[20] = system: NCI-H661
Procedure, shortened: as §1

[21] = system: PC-3 [JPC-3]
Procedure, shortened: as §1

[22] = system: SK-MES-1
Procedure, shortened: as §1

C=C1C(=O)O[C@@H](CCCCCCCC)[C@@H]1C(=O)O [C-75] + Nc1ncn([C@H]2C[C@H](O)[C@@H](CO)O2)c(=O)n1 [Decitabine] (partner 2 µM)
relative viability ([1]; first compound 0.08 µM): 0.505
relative viability ([1]; first compound 0.253 µM): 0.504
relative viability ([1]; first compound 0.8 µM): 0.503
relative viability ([1]; first compound 2.53 µM): 0.423
relative viability ([1]; first compound 8 µM): 0.552
relative viability ([2]; first compound 0.08 µM): 0.693
relative viability ([2]; first compound 0.253 µM): 0.676
relative viability ([2]; first compound 0.8 µM): 0.72
relative viability ([2]; first compound 8 µM): 0.667
relative viability ([3]; first compound 0.253 µM): 0.333
relative viability ([3]; first compound 0.8 µM): 0.277
relative viability ([3]; first compound 8 µM): 0.262
relative viability ([4]; first compound 0.08 µM): 0.197
relative viability ([4]; first compound 0.253 µM): 0.254
relative viability ([4]; first compound 0.8 µM): 0.206
relative viability ([4]; first compound 2.53 µM): 0.215
relative viability ([4]; first compound 8 µM): 0.233
relative viability ([5]; first compound 0.08 µM): 0.309
relative viability ([5]; first compound 0.253 µM): 0.374
relative viability ([5]; first compound 0.8 µM): 0.306
relative viability ([5]; first compound 2.53 µM): 0.232
relative viability ([5]; first compound 8 µM): 0.271
relative viability ([6]; first compound 0.08 µM): 0.83
relative viability ([6]; first compound 0.253 µM): 0.734
relative viability ([6]; first compound 0.8 µM): 0.752
relative viability ([6]; first compound 8 µM): 0.792
relative viability ([7]; first compound 0.08 µM): 0.333
relative viability ([7]; first compound 0.253 µM): 0.374
relative viability ([7]; first compound 0.8 µM): 0.36
relative viability ([7]; first compound 2.53 µM): 0.324
relative viability ([7]; first compound 8 µM): 0.355
relative viability ([8]; first compound 0.08 µM): 0.74
relative viability ([8]; first compound 0.253 µM): 0.674
relative viability ([8]; first compound 2.53 µM): 0.667
relative viability ([8]; first compound 8 µM): 0.69
relative viability ([9]; first compound 0.08 µM): 0.683
relative viability ([9]; first compound 0.253 µM): 0.713
relative viability ([9]; first compound 0.8 µM): 0.684
relative viability ([9]; first compound 2.53 µM): 0.646
relative viability ([9]; first compound 8 µM): 0.681
relative viability ([10]; first compound 0.08 µM): 0.516
relative viability ([10]; first compound 0.253 µM): 0.554
relative viability ([10]; first compound 0.8 µM): 0.509
relative viability ([10]; first compound 2.53 µM): 0.494
relative viability ([10]; first compound 8 µM): 0.475
relative viability ([11]; first compound 0.08 µM): 0.695
relative viability ([11]; first compound 0.253 µM): 0.685
relative viability ([11]; first compound 0.8 µM): 0.605
relative viability ([11]; first compound 2.53 µM): 0.549
relative viability ([11]; first compound 8 µM): 0.571
relative viability ([12]; first compound 0.08 µM): 0.37
relative viability ([12]; first compound 0.253 µM): 0.393
relative viability ([12]; first compound 0.8 µM): 0.327
relative viability ([12]; first compound 2.53 µM): 0.314
relative viability ([12]; first compound 8 µM): 0.338
relative viability ([13]; first compound 0.08 µM): 0.535
relative viability ([13]; first compound 0.253 µM): 0.587
relative viability ([13]; first compound 0.8 µM): 0.465
relative viability ([13]; first compound 2.53 µM): 0.447
relative viability ([13]; first compound 8 µM): 0.434
relative viability ([14]; first compound 0.08 µM): 0.749
relative viability ([14]; first compound 0.253 µM): 0.785
relative viability ([14]; first compound 0.8 µM): 0.667
relative viability ([14]; first compound 2.53 µM): 0.57
relative viability ([14]; first compound 8 µM): 0.722
relative viability ([15]; first compound 0.08 µM): 0.807
relative viability ([15]; first compound 0.253 µM): 0.423
relative viability ([15]; first compound 0.8 µM): 0.714
relative viability ([15]; first compound 2.53 µM): 0.681
relative viability ([15]; first compound 8 µM): 0.789
relative viability ([16]; first compound 0.08 µM): 0.299
relative viability ([16]; first compound 0.253 µM): 0.23
relative viability ([16]; first compound 0.8 µM): 0.287
relative viability ([16]; first compound 8 µM): 0.212
relative viability ([17]; first compound 0.08 µM): 0.488
relative viability ([17]; first compound 0.253 µM): 0.522
relative viability ([17]; first compound 0.8 µM): 0.498
relative viability ([17]; first compound 2.53 µM): 0.456
relative viability ([17]; first compound 8 µM): 0.356
relative viability ([18]; first compound 0.08 µM): 0.741
relative viability ([18]; first compound 0.253 µM): 0.693
relative viability ([18]; first compound 0.8 µM): 0.763
relative viability ([18]; first compound 2.53 µM): 0.555
relative viability ([18]; first compound 8 µM): 0.599
relative viability ([19]; first compound 0.08 µM): 0.332
relative viability ([19]; first compound 0.253 µM): 0.422
relative viability ([19]; first compound 0.8 µM): 0.365
relative viability ([19]; first compound 2.53 µM): 0.306
relative viability ([19]; first compound 8 µM): 0.234
relative viability ([20]; first compound 0.08 µM): 0.545
relative viability ([20]; first compound 0.253 µM): 0.54
relative viability ([20]; first compound 0.8 µM): 0.519
relative viability ([20]; first compound 2.53 µM): 0.41
relative viability ([20]; first compound 8 µM): 0.448
relative viability ([21]; first compound 0.08 µM): 0.78
relative viability ([21]; first compound 0.253 µM): 0.798
relative viability ([21]; first compound 0.8 µM): 0.782
relative viability ([21]; first compound 2.53 µM): 0.793
relative viability ([21]; first compound 8 µM): 0.91
relative viability ([22]; first compound 0.08 µM): 0.439
relative viability ([22]; first compound 0.253 µM): 0.367
relative viability ([22]; first compound 0.8 µM): 0.368
relative viability ([22]; first compound 2.53 µM): 0.412
relative viability ([22]; first compound 8 µM): 0.311
